Measurements published in patent publication US20130315843A1, “COMPOSITION FOR REDUCTION OF TRPA1 AND TRPV1 SENSATIONS” (priority 2012, published 2013).
Where a name gives a salt, the structure may show the parent alone. Read-outs that look alike come from different tables or passages of the source.

Tests used:
human TRPA1 [1] = target: T1, human TRPA1 (Homo sapiens, UniProt O75762); assay: FLIPR Ca2+ assay, reduction of L-Menthol activation of TRPA1
Description: In order to determine whether TRPA1 is activated, the intracellular calcium ion (Ca^2+) level from transfected cells with the TRPA1 receptor gene was measured. HEK-2 cells stably transfected with human TRPA1 were grown in 15 ml growth medium [high glucose DMEM (Dulbecco's Modification of Eagle's Medium) supplemented with 10% FBS (fetal bovine serum), 100 μg/ml Penicillin/streptomycin, 100 μg/ml G418] in a 75 Cm^2 flask for 3 days at 37° C. in a mammalian cell culture incubator set at 5% CO2. Cells were detached with addition of 10 ml of PBS (phosphate buffered saline) by hand shaking gently and transferred to a 50 ml tube and centrifuged at 850 rpm for 3 minutes to remove PBS. After centrifugation, a pellet of cells was formed in the bottom of the tube separating them from the supernatant solution. […] Fluo-4 is a fluorescent dye used for quantifying cellular Ca^2+ concentrations in the 100 nM to 1 μM range.
The pelleted cells were re-suspended in 10 ml assay buffer and 90 μl aliquots (˜50,000 cells) per well delivered to a 96-well assay plate containing 10 μl of test compounds (1 mM in assay buffer, final concentration 100 μM) or buffer control and incubated at room temperature for 30 minutes. After 30 minutes, the plate was placed into a fluorometric imaging plate reader (FLIPR384 from Molecular Devices) and basal fluorescence recorded (excitation wave length 488 nm and emission wave length 510 nm). Then 20 μl of the molecule being tested as a TRPA1 antagonist was added and fluorescence recorded. For determining the direct effect of test compounds on TRPA1, fluorescence was measured immediately after addition of each compound.
To determine if a compound was an antagonist or a desensitizer the direct effect of a test compound was determined. For determining the direct effect of test compounds on TRPA1 receptor activation, 100 μl aliquots (˜50,000 cells) of cells prepared as described above were delivered to a 96-well assay plate and basal fluorescence recorded as noted above. Then 20 μl of the compound being tested as a TRPA1 activator was added and fluorescence recorded. If any increase in fluorescence over background was noted, then the compound was considered an agonist.

human TRPV1 = human TRPV1 (Homo sapiens, UniProt Q8NER1); assay: FLIPR Ca2+ assay, reduction of L-Menthol activation of TRPV1; conditions: for inhibition at 100 µM: read-out: % Reduction of L-Menthol TRPV1 Activation
Chain of human TRPV1 (Q8NER1 whole entry): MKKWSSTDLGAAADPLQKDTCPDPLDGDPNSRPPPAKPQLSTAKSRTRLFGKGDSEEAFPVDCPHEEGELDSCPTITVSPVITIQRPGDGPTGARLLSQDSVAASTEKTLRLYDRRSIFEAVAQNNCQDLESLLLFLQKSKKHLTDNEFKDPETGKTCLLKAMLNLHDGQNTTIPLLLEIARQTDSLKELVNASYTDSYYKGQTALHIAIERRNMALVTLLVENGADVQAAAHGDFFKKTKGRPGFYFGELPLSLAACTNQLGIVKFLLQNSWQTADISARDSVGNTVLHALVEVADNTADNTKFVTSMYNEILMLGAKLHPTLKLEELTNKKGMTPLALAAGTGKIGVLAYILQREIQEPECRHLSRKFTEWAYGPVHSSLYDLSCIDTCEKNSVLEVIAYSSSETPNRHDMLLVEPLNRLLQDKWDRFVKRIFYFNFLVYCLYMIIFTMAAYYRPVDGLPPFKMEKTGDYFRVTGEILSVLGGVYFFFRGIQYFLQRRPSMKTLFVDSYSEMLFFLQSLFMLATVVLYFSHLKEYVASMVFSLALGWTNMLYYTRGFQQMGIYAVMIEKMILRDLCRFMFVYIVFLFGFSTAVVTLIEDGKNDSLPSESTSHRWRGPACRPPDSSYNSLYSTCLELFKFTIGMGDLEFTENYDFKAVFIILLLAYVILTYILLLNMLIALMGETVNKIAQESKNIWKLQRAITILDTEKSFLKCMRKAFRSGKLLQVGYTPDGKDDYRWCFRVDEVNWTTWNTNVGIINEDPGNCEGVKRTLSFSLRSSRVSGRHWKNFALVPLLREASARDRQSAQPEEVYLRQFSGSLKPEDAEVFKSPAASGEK
Description: To determine whether TRPV1 was activated, the intracellular calcium ion (Ca^+2) levels from cells transfected with the TRPV1 receptor gene was measured. HEK-239 cells stably transfected with human TRPV1 were grown in 15 ml growth medium [high glucose DMEM (Dulbecco's Modification of Eagle's Medium) supplemented with 10% FBS (fetal bovine serum), 100 g/ml Penicillin/streptomycin, 100 g/ml G418] in a 75 Cm2 flask for 3 days at 33° C. in a mammalian cell culture incubator set at 5% CO2. Cells were detached with addition of 10 ml of PBS (phosphate buffered saline) by hand shaking gently. Cells were transferred to a 50 ml tube and centrifuged at 850 rpm for 3 minutes to remove PBS. After centrifugation, a pellet of cells formed in the bottom of the tube separating them from the supernatant solution. The supernatant was discarded and the cell pellet suspended in 1 ml of fresh growth medium to which 5 μl (12.5 g) of Fluo-4 AM (Molecular Probes, Inc., Eugene, Oreg.) calcium indicator was added and incubated for 30 minutes with gentle shaking.
The pelleted cells were re-suspended in 10 ml assay buffer and 90 μl aliquots (˜50,000 cells) per well delivered to a 96-well assay plate containing 10 μl of test compounds (1 mM in assay buffer, final concentration 100 μM) or buffer control and incubated at room temperature for 30 minutes. After 30 minutes, the plate was placed into a fluorometric imaging plate reader (FLIPR384 from Molecular Devices) and basal fluorescence recorded (excitation wave length 488 nm and emission wave length 510 nm). Then 20 μl of the compound being tested as a TRPV1 receptor activator was added and fluorescence recorded. […] It may be no difference (no effect), or negative (means antagonist or desensitizer) or positive (enhancer, also known as positive allosteric modulator). […] To determine if a compound was an antagonist or a desensitizer, the direct effect of a test compound was determined. For determining the direct effect of test compounds on TRPV1, 100 μl aliquots (˜50,000 cells) of cells prepared as described above were delivered to a 96-well assay plate and basal fluorescence recorded as noted above. Then 20 μl of the compound being tested as a TRPV1 receptor activator was added and fluorescence recorded. If any increase in fluorescence over background was noted, then the compound was considered an agonist. The agonist activity was expressed relative to that observed with a benchmark agonist such as 350 nM Capsaicin for TRPV1.
100 μM of antagonist was tested against 1 mM of L-Menthol to determine the level of reduced TRPV1 receptor activation by L-Menthol. Each antagonist compound was run with 1 mM of L-Menthol as a control and the antagonist activity of each compound was determined by comparing the Ca^2+ levels of the control with the antagonist compound being tested.

human TRPA1 [2] = target: T1, human TRPA1; assay: FLIPR Ca2+ assay, reduction of hydrogen peroxide activation of TRPA1; format: cell-based; set-up: expressed in transfected cells
Description: After centrifugation, a pellet of cells was formed in the bottom of the tube separating them from the supernatant solution.
The pelleted cells were re-suspended in 10 ml assay buffer and 90 μl aliquots (˜50,000 cells) per well delivered to a 96-well assay plate containing 10 μl of test compounds ([…]) or buffer control and incubated at room temperature for 30 minutes.

[3] = 100 μM antagonist vs 1 mM L-Menthol
[4] = antagonist 100 μM against 1 mM L-Menthol

T1 sequence (O75762 whole entry): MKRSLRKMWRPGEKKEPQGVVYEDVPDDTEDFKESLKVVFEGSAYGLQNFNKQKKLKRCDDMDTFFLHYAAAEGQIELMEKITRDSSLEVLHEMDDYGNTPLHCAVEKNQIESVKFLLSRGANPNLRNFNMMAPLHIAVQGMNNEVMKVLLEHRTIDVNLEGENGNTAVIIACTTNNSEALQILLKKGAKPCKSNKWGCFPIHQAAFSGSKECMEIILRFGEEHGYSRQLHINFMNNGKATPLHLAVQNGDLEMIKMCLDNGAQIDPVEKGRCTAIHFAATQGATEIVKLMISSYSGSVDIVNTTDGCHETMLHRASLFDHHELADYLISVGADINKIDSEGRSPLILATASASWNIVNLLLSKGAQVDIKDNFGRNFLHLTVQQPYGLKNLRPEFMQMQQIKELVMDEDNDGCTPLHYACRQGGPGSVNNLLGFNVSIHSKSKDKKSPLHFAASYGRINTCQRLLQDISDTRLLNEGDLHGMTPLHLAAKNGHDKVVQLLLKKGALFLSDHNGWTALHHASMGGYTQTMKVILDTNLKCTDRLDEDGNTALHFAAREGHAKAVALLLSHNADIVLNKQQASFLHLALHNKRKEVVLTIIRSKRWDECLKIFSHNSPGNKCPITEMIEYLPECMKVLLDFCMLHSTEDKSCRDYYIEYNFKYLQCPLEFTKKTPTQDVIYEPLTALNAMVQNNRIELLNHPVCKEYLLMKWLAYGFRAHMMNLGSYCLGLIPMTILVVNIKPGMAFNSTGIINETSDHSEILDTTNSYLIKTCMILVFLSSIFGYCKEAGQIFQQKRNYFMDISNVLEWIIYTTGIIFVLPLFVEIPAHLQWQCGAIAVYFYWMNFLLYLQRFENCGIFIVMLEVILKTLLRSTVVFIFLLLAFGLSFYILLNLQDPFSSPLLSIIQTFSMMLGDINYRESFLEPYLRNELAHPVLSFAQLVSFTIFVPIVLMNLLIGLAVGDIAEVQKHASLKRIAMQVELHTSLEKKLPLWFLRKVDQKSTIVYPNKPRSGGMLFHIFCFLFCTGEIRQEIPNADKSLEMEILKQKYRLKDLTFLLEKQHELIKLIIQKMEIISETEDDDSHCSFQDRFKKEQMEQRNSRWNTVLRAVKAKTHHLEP

| Block of L-Menthol activation of TRPA1 (human TRPA1 [1]; [3]) | Average Ca2+ Counts (human TRPV1; [4]) | inhibition at 100 µM (human TRPV1) | SMILES | further results |
| --- | --- | --- | --- | --- |
| BLOCK ONLY MENTHOL/TRPA1 | 1442.3 Counts | 25.2% | CCCCCCCCO [1-octanol] |  |
| BLOCK ONLY MENTHOL/TRPA1 |  |  | CCC(O)c1ccccc1 (centres unmarked) [1-phenyl 1-propanol] |  |
| BLOCK ONLY MENTHOL/TRPA1 | 1480.7 Counts | 23.4% | CCCOC(C)OCCc1ccccc1 (centres unmarked) [2-(1-propoxyethoxy)ethylbenzene] |  |
| BLOCK ONLY MENTHOL/TRPA1 | 3569.5 Counts | 23.1% | CC(=O)c1nccs1 [2-acetylthiazole] |  |
| BLOCK ONLY MENTHOL/TRPA1 | 1432.7 Counts | 25.7% | CCc1nccnc1OC [2-ethyl-3-methoxypyrazine] |  |
| BLOCK ONLY MENTHOL/TRPA1 | 1050.3 Counts | 43.3% | COc1ccccc1C=O [2-methoxybenzaldehyde] |  |
| BLOCK ONLY MENTHOL/TRPA1 |  |  | CCC(C)C1CCCCC1=O (centres unmarked) [2-sec-butylcyclohexanone] |  |
| BLOCK ONLY MENTHOL/TRPA1 | 1083.3 Counts | 41.8% | CC(=O)c1ccccc1O [2′-hydroxyacetophenone] |  |
| BLOCK ONLY MENTHOL/TRPA1 | 1061.3 Counts | 42.8% | CC(=O)OCCC(C)S (centres unmarked) [3-mercaptobutyl acetate] |  |
| BLOCK ONLY MENTHOL/TRPA1 | 1554.0 Counts | 20% | CSC(C)C(C)=O (centres unmarked) [3-methylthio-2-butanone] |  |
| BLOCK ONLY MENTHOL/TRPA1 | 3377.0 Counts | 47.2% | O=C(C=Cc1ccccc1)OCC=Cc1ccccc1 [3-phenyl-2-propen-1-yl 3-phenylacrylate] |  |
| BLOCK ONLY MENTHOL/TRPA1 | 1399.0 Counts | 27.2% | COc1ccc(COC=O)cc1 [4-methoxybenzyl formate] |  |
| BLOCK ONLY MENTHOL/TRPA1 | 2707.0 Counts | 32.9% | CC(C)CC(=O)Cc1ccccc1 [4-methyl-1-phenyl-2-pentanone] |  |
| BLOCK ONLY MENTHOL/TRPA1 | 2968.5 Counts | 26.4% | CC(=O)C(=O)CC(C)C [5-methyl-2,3-hexanedione] |  |
| BLOCK ONLY MENTHOL/TRPA1 |  |  | C/C=C(/C)C(=O)OCC(C)C [Angelic Acid Isobutyl Ester] |  |
| BLOCK ONLY MENTHOL/TRPA1 |  |  | CC(=O)CCC=C(C)CCC=C(C)CCC=C(C)C [Farnesylacetone] |  |
| BLOCK ONLY MENTHOL/TRPA1 |  |  | CCCCCCCC/C=C\CCCCCCCC(=O)O [Oleic acid] |  |
| BLOCK ONLY MENTHOL/TRPA1 |  |  | CCCCCCCCCCCCC(=O)O [Tridecanoic acid] |  |
| BLOCK ONLY MENTHOL/TRPA1 | 2572.0 Counts | 44.6% | C=CCOC(=O)CCCCCCC [allyl caprylate] |  |
| BLOCK ONLY MENTHOL/TRPA1 | 2923.5 Counts | 27.6% | O=COCc1ccccc1 [benzyl formate] |  |
| BLOCK ONLY MENTHOL/TRPA1 | 2987.5 Counts | 26% | CC/C=C\CCOC(=O)CCC [cis-3-hexenyl butyrate] |  |
| BLOCK ONLY MENTHOL/TRPA1 | 1424.7 Counts | 26% | CCCC/C=C\CCO [cis-3-octen-1-ol] |  |
| BLOCK ONLY MENTHOL/TRPA1 | 1097.0 Counts | 41.2% | CC(C)=CCCC(C)CCOC=O (centres unmarked) [citronellyl formate] |  |
| BLOCK ONLY MENTHOL/TRPA1 | 1293.3 Counts | 32.1% | C=CCSCC=C [diallyl sulfide] |  |
| BLOCK ONLY MENTHOL/TRPA1 | 1398.0 Counts | 27.3% | CCCCOC(=O)CCCCCCCCC(=O)OCCCC [dibutyl sebacate] |  |
| BLOCK ONLY MENTHOL/TRPA1 | 1000.3 Counts | 45.7% | CCOC(=O)C(=O)CC(=O)CC [ethyl 2,4-dioxohexanoate] |  |
| BLOCK ONLY MENTHOL/TRPA1 | 4446.5 Counts | 30.5% | CCOC(=O)CCc1ccco1 [ethyl 3-(2-furyl)propionate] |  |
| BLOCK ONLY MENTHOL/TRPA1 |  |  | CCCCC/C=C/C=C/C=O [trans,trans-2,4-Decadienal] |  |

Continued, compound first:

| SMILES | Block of L-Menthol activation of TRPA1 (human TRPA1 [1]; [3]) | Average Ca2+ Counts (human TRPV1; [4]) | inhibition at 100 µM (human TRPV1) | further results |
| --- | --- | --- | --- | --- |
| CC(=O)OCC1=CCC2C[C@@H]1C2(C)C | BLOCK ONLY MENTHOL/TRPA1 |  |  |  |
| COC(C=C(C)CCC=C(C)C)OC (mixture of isomers) | BLOCK ONLY MENTHOL/TRPA1 |  |  |  |
| CC(C)=CCCC(C)CCO (racemic) [(+−)-beta; -Citronellol] | BLOCK ONLY MENTHOL/TRPA1 |  |  |  |
| COc1ccc(OC)cc1 [1,4-dimethoxybenzene] | BLOCK ONLY MENTHOL/TRPA1 | 3633.0 Counts | 43.2% |  |
| Cc1ccc(C(C)C)cc1 [1-isopropyl-4-methylbenzene] | BLOCK ONLY MENTHOL/TRPA1 | 1112.7 Counts | 40.5% |  |
| Cc1nc(C)c(C)nc1C [2,3,5,6-tetramethylpyrazine] | BLOCK ONLY MENTHOL/TRPA1 | 972.0 Counts | 47% |  |
| Cc1ccc(C)c(O)c1C [2,3,6-trimethylphenol] | BLOCK ONLY MENTHOL/TRPA1 | 1339.3 Counts | 30% |  |
| Cc1cnc(C)cn1 [2,5-dimethylpyrazine] | BLOCK ONLY MENTHOL/TRPA1 | 1040.0 Counts | 43.8% |  |
| C=CC1(C)CCC(C(=C)C)O1 (centres unmarked) [2-Isopropenyl-5-Methyl-5-Vinyltetrahydrofuran] | BLOCK ONLY MENTHOL/TRPA1 |  |  |  |
| O=C(Nc1ccccc1C(=O)O)c1ccccc1 [2-benzoylamino-benzoic acid] | BLOCK ONLY MENTHOL/TRPA1 | 1207.7 Counts | 36.1% |  |
| COc1ccccc1C(=O)O [2-methoxybenzoic acid] | BLOCK ONLY MENTHOL/TRPA1 | 1441.7 Counts | 25.2% |  |
| CC1OCCC1=O (centres unmarked) [2-methyltetrahydro-3-furanone] | BLOCK ONLY MENTHOL/TRPA1 | 993.7 Counts | 46% |  |
| O=C(O)c1ccc(O)c(O)c1 [3,4-dihydroxybenzoic acid] | BLOCK ONLY MENTHOL/TRPA1 | 1539.7 Counts | 20.7% |  |
| COc1cc(C)cc(OC)c1O [4-methyl-2,6-dimethoxyphenol] | BLOCK ONLY MENTHOL/TRPA1 | 1292.3 Counts | 32.1% |  |
| C=Cc1scnc1C [4-methyl-5-vinylthiazole] | BLOCK ONLY MENTHOL/TRPA1 | 1227.7 Counts | 35.1% |  |
| CC1(C)C2CC[C@@]1(C)C(=O)C2 [(1r)-(+)-camphor] | BLOCK ONLY MENTHOL/TRPA1 | 2807.0 Counts | 30.5% |  |
| O=C1O[C@H]([C@@H](O)CO)C([O-])=C1O.[Na+] [(+)-Sodium L-ascorbate] | BLOCK ONLY MENTHOL/TRPA1 |  |  |  |
| C=C1CC/C=C(\C)CC[C@@H]2[C@@H]1CC2(C)C [beta-caryophyllene] | BLOCK ONLY MENTHOL/TRPA1 | 2744.5 Counts |  | % Reduction of L-Menthol TRPV1 Activation (human TRPV1; [4]): 32.0% |
| O=C(O)c1ccc(O)cc1O [beta-resorcylic acid] | BLOCK ONLY MENTHOL/TRPA1 | 1317.3 Counts | 31% |  |
| C[N+](C)(C)CCO.O=C([O-])C(O)C(O)C(=O)O (centres unmarked) [choline bitartrate] |  |  |  | % Reduction of L-Menthol TRPV1 Activation (human TRPV1): 39.1%; Average Ca2+ Counts (human TRPV1): 1141.3 Counts; Block of L-Menthol activation of TRPA1 (human TRPA1 [1]): BLOCK ONLY MENTHOL/TRPA1 |
| O=C(O)CN(CCN(CC(=O)O)CC(=O)O)CC(=O)O [edta] |  |  |  | % Reduction of L-Menthol TRPV1 Activation (human TRPV1): 34.8%; Average Ca2+ Counts (human TRPV1): 1236.0 Counts; Block of L-Menthol activation of TRPA1 (human TRPA1 [1]): BLOCK ONLY MENTHOL/TRPA1 |
| CCOC(=O)C(Cc1ccccc1)C(C)=O (centres unmarked) [ethyl 2-benzylacetoacetate] | BLOCK ONLY MENTHOL/TRPA1 | 1548.3 Counts | 20.3% |  |
| OCc1ccco1 [furfuryl alcohol] | BLOCK BOTH MENTHOL AND H2O2 ON TRPA1 |  |  | Average Ca++ Counts (human TRPA1 [2]): 5585.5 Counts; Block of hydrogen peroxide activation of TRPA1 (human TRPA1 [2]): BLOCK BOTH MENTHOL AND H2O2 ON TRPA1; inhibition at 100 µM (human TRPA1 [2]; read-out: % Reduction of Hydrogen Peroxide TRPA1 Activation): 47.3% |
| O=C/C=C/c1ccccc1 [trans-Cinnamaldehyde] | BLOCK ONLY MENTHOL/TRPA1 |  |  |  |
